No end group written: not given here. Where only a bound is given, the exact number is not on record here.

The results in this text go back to publication PMC7063992, “Opossum Cathelicidins Exhibit Antimicrobial Activity Against a Broad Spectrum of Pathogens Including West Nile Virus” (Frontiers in Immunology, 2020).

Common to all, as to assay type: cell-based
The subject of data set [1] is Human primary keratinocytes. Nature of the data set: Viability of keratinocytes, XTT. The settings on record: 24 h, XTT. From the text: The Ethics Committee of the Poitiers Hospital approved the use of human skin samples for research studies. All subjects provided written informed consent in accordance with the tenets of the Declaration of Helsinki. Normal abdominal or breast skin samples were obtained from patients undergoing plastic surgery and thoroughly washed with PBS free of calcium and magnesium (PBS; Gibco, Thermo Fisher Scientific, Waltham, MA, United States) after fat removal. The skin samples were minced into fragments of approximately 125 mm^2, using scalpel blades. Skin samples were incubated overnight at 4°C in a dispase solution (25 U/mL; Life Technologies, Carlsbad, CA, United States). Epidermal sheets were removed from the dermis, and keratinocytes were dissociated via trypsin digestion (trypsin-EDTA; Gibco) for 15 min at 37°C. The cell suspension was then filtered through a 280-μm sterile filter. DMEM (Gibco) supplemented with 10% (vol/vol) of FBS (Gibco) was added, and the suspension was centrifuged at 300 × g and 25°C for 10 min. Keratinocytes were seeded at a density of 10^7 cells in 75-cm^2 tissue culture flask in keratinocyte-serum free medium (K-SFM; Invitrogen, Carlsbad, CA, United States) supplemented with bovine pituitary extract (25 μg/mL; Invitrogen) and recombinant epidermal growth factor (EGF) (0.25 ng/mL; Invitrogen). The cultures were incubated at 37°C in a humidified atmosphere with 5% CO2 until 80% confluence and then stored frozen in liquid nitrogen until use. Finally, keratinocytes were seeded in sterile 24-well culture plates at 10^5 cells/well in K-SFM supplemented with bovine pituitary extract and EGF and cultured to 80% confluence. Cells were then starved overnight in K-SFM alone before stimulation.
Primary keratinocytes were cultured in 96-well plates at 4 × 10^4 cells per well in 0.1 mL K-SFM (Invitrogen) up to 80% confluence before being treated with various concentrations of ModoCath peptides for 24 h. Cell viability was assessed using the cell proliferation kit II (XTT; Roche, Basel, Switzerland) in accordance with the manufacturer’s protocol. The XTT labeling mixture was added after 24 h of incubation in the absence or presence of peptides at the indicated concentrations.

For data set [2], the system named is Enterococcus faecalis ATCC 29212. Nature of the data set: microbe, parasite or virus in culture. Particulars: E. faecalis ATCC 29212; CAMHB, 37°C 6 h + 2 h; triplicate. How it is done:
(§1) Peptides corresponding to the predicted antimicrobial regions of ModoCath1 (ΔModoCath1, N-VKRTKRGARRGL […]-C), ModoCath5 (ΔModoCath5, N-[…]-C), ModoCath6 (ΔModoCath6, N-[…]-C) and PMAP36 (N-[…] PLGCG-C) were synthesized via solid-phase peptide synthesis and purified via high-performance liquid chromatography using a commercial service (GenScript, Piscataway Township, NJ, United States). The MIC of synthesized peptides was determined against a panel of bacteria comprising 3 gram-positive strains, Staphylococcus aureus ATCC 6538 (ATCC, Manassas, VA, United States), Bacillus cereus ATCC 10876, and Enterococcus faecalis ATCC 29212, and 3 gram-negative strains, Escherichia coli ATCC 25922, Pseudomonas aeruginosa ATCC 27853, and Salmonella typhimurium ATCC 14028. Ampicillin (Sigma Aldrich, St. Louis, MO, United States) and gentamicin sulfate (Sigma Aldrich) were used as controls for antimicrobial activity. The MIC was determined using a colorimetric method specified by the Microbial Viability Assay Kit-WST (Dojindo, Kumamoto, Japan) in accordance with the manufacturer’s protocol and the Clinical and Laboratory Standards Institute (CLSI) guidelines (2018). Briefly, four colonies of each bacterium were inoculated into 5 mL Luria-Bertani (LB) broth medium at 37°C for 4 to 6 h. The cells were washed with sterile saline (0.9% NaCl) twice and seeded in a single well of a 96-well plate at the cell density of 10^5 CFU/well. Subsequently, 180 μL/well of fresh Mueller-Hinton broth (MHB) was added to the plate. Different concentrations of each peptide and reference antibiotics were serially diluted in 10 μL of MHB and added to each well. The plate was incubated at 37°C for 6 h. Cation-adjusted MH broth (CAMHB) was used to culture E. faecalis. Subsequently, 10 μL of the coloring reagent was added, and cells were incubated at 37°C for 2 h. UV absorbance was measured for each well at 450 nm, using a microplate spectrophotometer (xMark spectrophotometer; Bio-Rad, Hercules, CA, United States). MIC values were determined when the difference in the optical density (OD) between treatments and blanks (media and coloring reagent only) decreased to < 0.05. Experiments were conducted in triplicate. […] The pH conditions were achieved by using acetic acid (Sigma Aldrich).

The subject of data set [3] is Escherichia coli ATCC 25922. The experiment in a line: microbe, parasite or virus in culture. Particulars: E. coli ATCC 25922. The method, then: as §1
Data set [4] relates to Pseudomonas aeruginosa ATCC 27853. The experiment in a line: microbe, parasite or virus in culture. Particulars: P. aeruginosa ATCC 27853; MHB, 37°C 6 h + 2 h; triplicate. The method, then: as §1
The test system of data set [5] is Staphylococcus aureus ATCC 6538. Nature of the data set: microbe, parasite or virus in culture. The settings on record: S. aureus ATCC 6538; MHB, 37°C 6 h + 2 h; triplicate. The method, then:
as §1

The test system of data set [6] is Salmonella typhimurium ATCC 14028. Nature of the data set: microbe, parasite or virus in culture. Particulars: S. typhimurium ATCC 14028; MHB, 37°C 6 h + 2 h; triplicate. How it is done: as §1
In data set [7] the test system is Bacillus cereus ATCC 10876. Nature of the data set: microbe, parasite or virus in culture. Particulars: B. cereus ATCC 10876; MHB, 37°C 6 h + 2 h; triplicate. The method, then: as §1
Where [8] appears, read: Control: MHB at pH 7.5 without any additives, value in brackets.
[9] abbreviates: value in brackets, MHB, 37°C 6 h + 2 h, triplicate.

As for “VKRTKRGARRGLTKVLKKIFGSIVKKAVSKGV [ΔModoCath1]”, the “Cell viability ± SD” value in data set [1] (8 μg/mL) is 97.1 ± 2.9%; in data set [1] (16 μg/mL), 91.4 ± 1.6%; in data set [1] (32 μg/mL) it was 56.2 ± 8.4%; in data set [1] (64 μg/mL), 5.8 ± 3.7%. In addition, the MIC is 2 (0.57) μg/mL in data set [2]; 0.14 µM in data set [3] (1mM MgCl2, value in brackets); 0.29 µM in data set [3] (2.5mM CaCl2, value in brackets); 0.14 µM in data set [3] (4.5mM KCl, value in brackets); 0.14 µM in data set [3] (150mM NaCl, value in brackets); 0.21 µM in data set [3] (setting [8]). Moreover, the MIC in data set [3] (pH 7, value in brackets) was 0.21 µM; in data set [3] (setting [9]) it was 0.21 µM; in data set [4], 2 (0.57) μg/mL; in data set [5] it was 3 (0.85) μg/mL; in data set [6] it was 2 (0.57) μg/mL; in data set [7] it was 30 (8.5) μg/mL.
“VRRSKRGIKVPSFVKKVLKDVVSESIS [ΔModoCath6]”: the “Cell viability ± SD” value came out at 98.0 ± 1.6% in data set [1] (8 μg/mL), 100.3 ± 1.3% in data set [1] (16 μg/mL), 101.0 ± 2.6% in data set [1] (32 μg/mL) and 89.2 ± 7.2% in data set [1] (64 μg/mL). Moreover, the MIC in data set [2] is > 32(10.51) μg/mL; in data set [3] (MHB, 10^5 CFU/well, 37°C 6 h + 2 h with coloring reagent, OD 450 nm, triplicate) it was 5 (1.64) μg/mL; in data set [4], > 32(10.51) μg/mL; in data set [5], > 32(10.51) μg/mL; in data set [6] it was > 32(10.51) μg/mL; in data set [7], > 32(10.51) μg/mL.
As to “WYQLIRTFGNLIHQKYRKLLEAYRKLRD [ΔModoCath5]”, the “Cell viability ± SD” value in data set [1] (8 μg/mL) was determined as 98.1 ± 0.6%; in data set [1] (16 μg/mL), 96.2 ± 3.5%; in data set [1] (32 μg/mL) it was 79.1 ± 13.0%; in data set [1] (64 μg/mL), 48.9 ± 15.5%. In addition, the MIC was 2 (0.55) μg/mL in data set [2]; 2.48 µM in data set [3] (1mM MgCl2, value in brackets); 2.07 µM in data set [3] (150mM NaCl, value in brackets); 1.38 µM in data set [3] (setting [8]); 0.69 µM in data set [3] (pH 6, value in brackets); 1.38 µM in data set [3] (pH 7, value in brackets). Moreover, the MIC is 1.38 µM in data set [3] (setting [9]); > 32(8.83) μg/mL in data set [4]; 1.5 (0.41) μg/mL in data set [5]; > 32(8.83) μg/mL in data set [6]; 6 (1.66) μg/mL in data set [7].
